Results taken from patent publication US20230364061A1, “THIAZOLIDINE DERIVATIVES FOR INHIBITING CAV3.2-USP5 INTERACTIONS” (Zymedyne Therapeutics Inc., priority 2020, published 2023).

Legend:
[1] = test system: recombinant USP5 (long or short splice variant); experiment: USP5 deubiquitinase (DUB) activity assay; format: biochemical; details: recombinant long or short form of USP5, fluorescence over time (FIG. 8)
Experimental: FIG. 8 examines the effect of exemplary compound II-1 on in vitro deubiqutinase activity of USP5. Here recombinant USP5 (either the long or the short splice variant) is incubated with a ubiquitinated substrate, and deubiquitination is measured via a fluorescence readout as a function of time.
To rule out the possibility that exemplary compound II-1 might mediate its analgesic effects by altering the deubiquitinase (DUB) activity of USPS rather than by disrupting the interactions with the channel, a DUB assays was conducted (FIG. 8). Here, a ubiquitinated substrate (ubiquitin-rhodamine110-glycine) is incubated with recombinant long or short forms of USP5, and deubiquitination of the substrate as a function of time is measured via a fluorescence readout. Both the long form and the short form of USP5 lead to deubiquitination of the substrate, as evident from an increasing and plateauing fluorescence signal (528 nm emission in response to 485 nm excitation). The commercially available DUB inhibitor Degrasyn which is used as a positive control prevents this.

[2] = target: T1, association of USP5 and Cav3.2 channels (Mus musculus, UniProt P56399); experiment: Co-immunoprecipitation of USP5 with Cav3.2 from brain lysate; format: binding; details: 1 uM compound, whole brain lysates, n=5 (FIG. 4)
T1 construct: using whole brain lysates and probed for USP5; from tissue; host or cells: mouse whole brain homogenate/lysate
T1 sequence (P56399 1-858): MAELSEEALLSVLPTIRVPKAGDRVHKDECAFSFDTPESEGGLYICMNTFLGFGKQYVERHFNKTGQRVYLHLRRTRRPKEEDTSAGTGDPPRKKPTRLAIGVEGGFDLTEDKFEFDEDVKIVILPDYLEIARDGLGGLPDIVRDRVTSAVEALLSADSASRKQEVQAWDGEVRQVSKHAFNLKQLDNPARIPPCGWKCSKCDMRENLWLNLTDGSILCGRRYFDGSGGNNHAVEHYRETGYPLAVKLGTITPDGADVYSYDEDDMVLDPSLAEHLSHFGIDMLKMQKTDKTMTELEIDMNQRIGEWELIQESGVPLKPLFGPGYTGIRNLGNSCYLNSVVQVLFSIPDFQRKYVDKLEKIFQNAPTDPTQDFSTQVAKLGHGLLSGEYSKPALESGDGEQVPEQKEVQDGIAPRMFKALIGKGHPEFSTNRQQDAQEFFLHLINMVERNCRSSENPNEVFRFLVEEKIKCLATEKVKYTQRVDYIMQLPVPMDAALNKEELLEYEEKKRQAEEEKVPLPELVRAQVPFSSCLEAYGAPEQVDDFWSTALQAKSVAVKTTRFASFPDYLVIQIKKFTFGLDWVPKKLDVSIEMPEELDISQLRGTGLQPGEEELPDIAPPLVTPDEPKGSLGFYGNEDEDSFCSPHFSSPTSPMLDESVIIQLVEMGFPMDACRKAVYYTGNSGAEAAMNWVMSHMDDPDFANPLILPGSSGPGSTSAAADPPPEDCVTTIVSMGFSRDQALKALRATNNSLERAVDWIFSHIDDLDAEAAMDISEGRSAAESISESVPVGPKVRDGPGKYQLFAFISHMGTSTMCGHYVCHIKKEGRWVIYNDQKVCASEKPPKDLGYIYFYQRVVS
Experimental: FIG. 4 is a graph showing the results of the of immunoprecipitation assay with Cav3.2 channels and a rabbit 3.2 polyclonal antibody using whole brain lysates and probed for USP5 (n=5). Quantifications were normalized to bound USP5 to Cav3.2 IP/alpha-tubulin. 1 uM of exemplary compounds II-1 and II-2 were used in the incubation. 5 uM of a positive control compound was used in the incubation.
A co-immunoprecipitation assay was implemented as a secondary screen for actives derived from the compound library screen. Moause brain homogenate was prepared, and the tissue containing was incubated with a rabbit Cav3.2 polyclonal antibody to immunoprecipitate Cav3.2 channel complexes. The precipitates were run on a Western blot and probed with an antibody against USP5 (n=5). Band intensities for bound USP5 were quantified and normalized to alpha-tubulin (FIG. 4). 1 μM of exemplary compounds II-1 and II-2 were used in the incubation. 5 μM of a control compound identified in a previous library screen was used as a positive control.

[3] = test system: formalin induced nocifensive responses; experiment: Formalin-induced pain assay; format: in vivo; details: mice, intrathecal delivery, both phases (FIG. 5)
Experimental: Formalin was injected into the hindpaw of a mouse, and the time that the mouse spent licking and biting its paw was determined. There are two phases of these nocifensive behavioral responses—phase I occurs immediately after formalin injection and reflects an acute response, phase II occurs approximately thirty minutes after formalin injection and reflects inflammatory pain. II-1 inhibited the duration of both phases in a dose dependent manner. […] Formalin injection into the hindpaw mediates nocifensive responses (paw licking, biting). There is an initial phase that reflects an acute responses to formalin injection, followed by a quiescent period and a second phase of nocifensive behaviors that reflects inflammatory pain. The duration of the responses is reflective of the amount of pain. […] The same doses were then used in a chronic inflammatory pain assay (i.e. CFA).

[4] = test system: CFA induced thermal hypersensitivity; experiment: Complete Freund's Adjuvant (CFA) model of chronic inflammatory pain, thermal hypersensitivity; format: in vivo, mice
Experimental: The latency to paw withdrawal in response to radiate heat to the paw decreases after CFA, and II-1 reverses this hypersensitivity in a dose dependent manner, indicating a strong analgesic effect of II-1. […] CFA injection into the hind paw leads to long lasting (weeks) mechanical and thermal hypersensitivity of the hind paw that is reflective of chronic inflammatory pain states. Thermal hypersensitivity is assessed by applying a radiant heat source to the hind paw of the animal and measuring the time between application of the heat source and the withdrawal of the paw. In CFA treated animals, the withdrawal latencies are dramatically shortened, and reflective of thermal hypersensitivity (i.e. thermal pain responses). […] Two asterisks indicate statistical significance at the 0.01 level, three asterisks indicate statistical significance at the 0.001 level relative to CFA+vehicle. FIG. 7 compares the effects of exemplary compound II-1 on CFA mediated thermal hypersensitivity in wild type mice and in mice lacking Cav3.2 channels (45 minutes after administration of the compound). […] Cav3.2^-/- mice have compensatory mechanisms that lead to increased thermal hypersensitivity in response to CFA even though Cav3.2 channels are absent.

[5] = target: T2, USP5-Cav3.2 interaction (recombinant USP5 binding to immobilized Cav3.2 domain III-IV linker peptides) (Homo sapiens, UniProt P45974); experiment: Cav3.2-USP5 ELISA assay; details: for Percent Inhibition: Cav3.2-USP5 ELISA of Example 1, concentration not given
T2 sequence (P45974 1-858): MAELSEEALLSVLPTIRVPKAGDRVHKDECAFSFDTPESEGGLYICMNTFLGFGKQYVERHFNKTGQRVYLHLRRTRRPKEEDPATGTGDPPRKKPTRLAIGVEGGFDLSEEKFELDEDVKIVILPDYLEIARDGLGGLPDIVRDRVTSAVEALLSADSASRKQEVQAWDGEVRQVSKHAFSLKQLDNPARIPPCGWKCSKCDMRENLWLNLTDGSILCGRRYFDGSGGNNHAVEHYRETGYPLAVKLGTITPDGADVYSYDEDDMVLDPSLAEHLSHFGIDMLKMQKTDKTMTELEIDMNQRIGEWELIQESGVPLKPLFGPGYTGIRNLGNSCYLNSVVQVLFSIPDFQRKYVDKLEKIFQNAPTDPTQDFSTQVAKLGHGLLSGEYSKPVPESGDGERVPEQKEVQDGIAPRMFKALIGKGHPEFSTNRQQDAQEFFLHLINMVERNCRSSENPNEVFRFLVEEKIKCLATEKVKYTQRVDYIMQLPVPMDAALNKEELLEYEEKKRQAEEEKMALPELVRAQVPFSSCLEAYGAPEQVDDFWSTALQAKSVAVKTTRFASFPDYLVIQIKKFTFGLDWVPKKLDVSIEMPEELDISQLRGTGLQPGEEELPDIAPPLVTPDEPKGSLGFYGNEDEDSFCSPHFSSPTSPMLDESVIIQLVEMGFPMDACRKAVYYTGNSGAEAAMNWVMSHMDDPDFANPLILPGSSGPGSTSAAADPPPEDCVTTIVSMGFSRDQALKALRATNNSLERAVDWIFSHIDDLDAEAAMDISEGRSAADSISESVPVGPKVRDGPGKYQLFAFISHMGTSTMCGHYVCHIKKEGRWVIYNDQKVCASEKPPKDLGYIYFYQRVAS
Description: FIG. 3 is a schematic of the high throughput ELISA assay used to screen the exemplary compound of the applications. Here the Cav3.2 III-1V linker is immobilized and then recombinant USP5 is allowed to bind. Binding is detected via antibodies conjugated to horseradish peroxidase for a fluorescent readout. Compounds are applied and a reduction in fluorescence is indicative of a disruption of USP5-Cav3.2 interactions.
A high throughput ELISA assay was used to screen the exemplary compounds of the applications (FIG. 3). The ELISA is based on the binding of recombinant USP5 to immobilized Cav3.2 domain […] linker peptides. Binding interactions were detected using USP5 antibodies, and a secondary antibody conjugated to horseradish peroxidase, leading to a fluorescence readout. The ELISA was converted into a high through-put format 384 well plate. Multiple compound libraries were screened for small organic molecules that disrupt the USP5—Cav3.2 interaction. A number of hits were identified at the standard screening concentration, and the dose dependence of hits was investigated. Select actives were subjected to a secondary biochemical assays based on co-immunoprecipitations of USP5 and Cav3.2 from mouse neuronal tissue.
In the ELISA assay from Example 1, compound II-1 was added at varying concentrations, and the ability of II-1 to inhibit the USP5-Cav3.2 interaction examined. The percentage of inhibition as a function of drug concentration could be fitted using the Hill equation.

[6] = test system: CFA induced thermal hypersensitivity in Cav3.2-/- mice; experiment: CFA thermal hypersensitivity in Cav3.2 null mice; format: in vivo; details: 45 minutes after administration (FIG. 7)
Experimental: FIG. 7 compares the effects of exemplary compound II-1 on CFA mediated thermal hypersensitivity in wild type mice and in mice lacking Cav3.2 channels (45 minutes after administration of the compound). […] Cav3.2^−/− mice have compensatory mechanisms that lead to increased thermal hypersensitivity in response to CFA even though Cav3.2 channels are absent.

[7] = test system: diabetic, visceral, inflammatory and neuropathic pain; details: hits of an initial CDRD active compound library screen; cited from earlier work

| SMILES | Percent Inhibition [5] [%] | also measured |
| --- | --- | --- |
| CCC[C@H](NC(=O)/C(C#N)=C/c1cccc(Br)n1)c1ccccc1 [Degrasyn, reference compound] | – | deubiquitination of ubiquitin-rhodamine110-glycine by USP5 (fluorescence readout) [1]: inhibits this fluorescence signal |
| CC(O)C(NCC1SC(=S)NC1=O)C(=O)O (stereo not drawn) [II-1] | 100 | USP5 bound to Cav3.2 IP, normalized to alpha-tubulin [2]: disrupt the association of USP5 and Cav3.2 channels in neuronal tissue; duration of nocifensive responses (paw licking, biting), phase I and phase II [3]: response time is shortened in a dose dependent manner; deubiquitination of ubiquitin-rhodamine110-glycine by USP5 (fluorescence readout) [1]: does not mediate DUB inhibition; thermal paw withdrawal latency after CFA ([4]; mice, intrathecal delivery, dose response (FIG. 6)): shortened latencies are reversed in a dose dependent manner; thermal paw withdrawal latency after CFA, wild type mice ([4]; wild type Cav3.2+/+ mice, 45 minutes after administration (FIG. 7)): reversed the CFA-induced reduction in thermal paw withdrawal latencies; dose-response of percent inhibition in the Cav3.2-USP5 ELISA ([5]; varying concentrations, fitted with the Hill equation (FIG. 9)): dose dependence of the effect; thermal paw withdrawal latency after CFA, Cav3.2 knockout mice [6]: no longer able to reverse CFA induced thermal hypersensitivity |
| CC(CO)(CO)NCC1SC(=S)NC1=O (stereo not drawn) [II-2] | 100 | USP5 bound to Cav3.2 IP, normalized to alpha-tubulin [2]: disrupt the association of USP5 and Cav3.2 channels in neuronal tissue; deubiquitination of ubiquitin-rhodamine110-glycine by USP5 (fluorescence readout) [1]: fail to inhibit deubiquitination |
| CC(C)C(NCC1SC(=S)NC1=O)C(=O)O (stereo not drawn) [II-3] | 100 | – |
| CC(C)CC(NCC1SC(=S)NC1=O)C(=O)O (stereo not drawn) [II-4] | 100 | – |
| O=c1c(O)c(-c2ccc(O)c(O)c2)oc2c(O)c(O)cc(O)c12 [gossypetin] | – | protection from pain in mice [7]: protect from diabetic, visceral, inflammatory and neuropathic pain in mice |
| Cc1ccc(C(=O)Nc2ccc(S(=O)(=O)O)c3cc(S(=O)(=O)O)cc(S(=O)(=O)O)c23)cc1NC(=O)c1cccc(NC(=O)Nc2cccc(C(=O)Nc3cc(C(=O)Nc4ccc(S(=O)(=O)O)c5cc(S(=O)(=O)O)cc(S(=O)(=O)O)c45)ccc3C)c2)c1 [suramin] | – | protection from pain in mice [7]: protect from diabetic, visceral, inflammatory and neuropathic pain in mice |

Second part, led by results:

| Percent Inhibition [5] [%] | SMILES | also measured |
| --- | --- | --- |
| 86 | CCC(C)C(NCC1SC(=S)NC1=O)C(=O)O (stereo not drawn) [II-5] | – |
| 87 | NCCCCC(NCC1SC(=S)NC1=O)C(=O)O (stereo not drawn) [II-6] | – |
| 85 | O=C(O)CN(CC(=O)O)CC1SC(=S)NC1=O (stereo not drawn) [II-7] | – |
| 82 | O=C(O)CCNCC1SC(=S)NC1=O (stereo not drawn) [II-8] | – |
| 6 | O=C1NC(=S)SC1CNCCCO (stereo not drawn) [II-9] | – |
| 28 | CC(C)CCC(CCC(C)C)NCC1SC(=S)NC1=O (stereo not drawn) [II-10] | – |
| 75 | O=C1NC(=S)SC1CNC1(CCO)CCCCC1 (stereo not drawn) [II-11] | – |
| 82 | O=C1NC(=S)SC1CNC1CCCCC1 (stereo not drawn) [II-12] | – |
